Patent US5721267A, “Chemotherapeutic pyrrolocarbazole derivatives” (Syntex (U.S.A.) Inc., priority 1997, dated 1998)

Biological target: T1, β1 isozyme of PKC from rat brain (Rattus norvegicus, UniProt P68403)
T1 construct: β1 isozyme of PKC from rat brain; from tissue; host or cells: rat brain
Test: Protein kinase C inhibition assay (32P incorporation from γ-32P ATP into synthetic peptide substrate)
Assay type: biochemical
Conditions: activated by 5×10^-6 M diC8 and 1 μg/mL phosphatidylserine, 50 μM ATP, read-out: IC50 (concentration necessary to achieve 50% inhibition of PKC)
Procedure: In vitro activity for protein kinase C inhibition, is quantitated by measuring incorporation of […] from γ-^32 P ATP into synthetic peptide substrates.
Protein Kinase C (PKC) inhibitory activity is quantitated by measuring incorporation of ^32 P from γ-^32 P ATP into synthetic peptide substrates. The inhibitory potential is measured using the β1 isozyme of PKC from rat brain and the synthetic peptide substrate ala-lys-arg-arg-arg-leu-ser-ser-leu-arg-ala.
A reaction mixture containing 25 mM Tris-HCl, pH 7.5, 2.5 mM Mg(NO3), 1.0 mM EGTA, 20 μM substrate, 1 μg/mL phosphatidlserine (PS), 5×10 ^-6 M diacylglycerol(di-C8), and 50 μM ATP is spiked with γ-^32 P ATP (>5,000 Ci/mmol) to provide approximately 10^6 CPM per reaction and 0.08 μg/mL PKC in a 50 μl volume per well. The assay is run with or without test compound, added at various concentrations. After five minutes incubation at room temperature, the reaction is stopped by the addition of 0.2V of a 50% TCA solution. A 30 μl sample from each well (control and test compound) is then spotted onto Whatman P-81 ion exchange chromatography paper, and 32-P incorporation is then counted on a Beckman LS 5000 TA liquid scintillation counter. […]
% Inhibition=1.0 -[(sample CPM-basal CPM)/(total CPM-basal CPM)]×100 and the concentration necessary to achieve 50% Inhibition is determined.

T1 sequence (P68403 whole entry): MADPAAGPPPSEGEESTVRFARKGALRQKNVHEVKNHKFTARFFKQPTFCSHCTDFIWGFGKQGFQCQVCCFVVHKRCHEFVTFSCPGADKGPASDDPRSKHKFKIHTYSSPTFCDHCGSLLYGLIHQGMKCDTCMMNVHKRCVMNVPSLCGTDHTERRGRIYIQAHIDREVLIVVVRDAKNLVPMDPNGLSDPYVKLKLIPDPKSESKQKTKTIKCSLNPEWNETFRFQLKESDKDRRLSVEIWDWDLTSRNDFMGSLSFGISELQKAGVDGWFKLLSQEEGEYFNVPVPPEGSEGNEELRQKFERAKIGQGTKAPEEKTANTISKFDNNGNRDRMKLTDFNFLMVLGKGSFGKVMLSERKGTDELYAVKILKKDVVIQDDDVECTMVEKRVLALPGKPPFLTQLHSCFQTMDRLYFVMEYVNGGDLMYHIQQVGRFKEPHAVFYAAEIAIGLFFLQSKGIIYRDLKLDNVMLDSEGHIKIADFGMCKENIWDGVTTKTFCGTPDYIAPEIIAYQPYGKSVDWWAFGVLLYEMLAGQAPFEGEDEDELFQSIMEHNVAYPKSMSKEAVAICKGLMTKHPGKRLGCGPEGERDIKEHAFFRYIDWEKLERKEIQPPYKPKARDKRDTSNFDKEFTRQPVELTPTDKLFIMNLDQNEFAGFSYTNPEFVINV

- IC50: 30 nM
SMILES: CNCCCn1c2ccccc2c2c3c(c(-c4ccsc4)cc21)C(=O)NC3=O [1,3-dioxo-6-(3-methylaminopropyl)-1,2,3,6-tetrahydro-4-(thiophen-3-yl)-pyrrolo[3,4-c]carbazole]
